Activity calls are given as the source filed them. The rule behind the calls is not given here.
Key:
[1] = Elongation of aggregates of GFP-fused amyloid beta (1 to 42) expressed in Podospora anserina extract assessed as reduction of amyloid beta SDS-resistant oligomers after 1 hr by SDS-PAGE and Western blot analysis
[2] = Inhibition of aggregation of GFP-fused amyloid beta (1 to 42) expressed in Podospora anserina assessed as reduction of amyloid beta SDS-resistant oligomers at 50 uM after 24 hrs by SDS-PAGE and Western blot analysis
[3] = Toxicity in Podospora anserina expressing GFP-fused amyloid beta (1 to 42) assessed as effect on lifespan and growth rate of fungi at 50 uM
Saccharomyces cerevisiae [4] = assay: Toxicity in yeast harboring erg6delta expressing human DHFR-fused amyloid beta (1 to 42) at 100 uM; type: organism-based; details: in vivo
[5] = Cytotoxicity against human HeLa cells after 24 hrs by XTT assay; type: cell-based
[6] = Lipophilicity, log P of the compound; type: physicochemical; details: octanol/water
[7] = Inhibition of aggregation of amyloid beta (17 to 40) assessed as fibril formation at 100 uM measured up to 24 hrs by transmission electron microscopic analysis
[8] = Inhibition of aggregation of amyloid beta (17 to 40) assessed as fibril formation at 100 uM measured up to 10 hrs by turbidimetry assay
[9] = Inhibition of aggregation of amyloid beta (17 to 40) assessed as fibril formation at 100 uM measured up to 13 hrs by high throughput thioflavin-T binding assay
[10] = Inhibition of aggregation of GFP-fused amyloid beta (1 to 42) expressed in Podospora anserina assessed as reduction of amyloid beta SDS-resistant oligomers at 50 uM after 10 hrs to 5 days by SDS-PAGE and Western blot analysis
[11] = biological target: Amyloid-beta precursor protein (Homo sapiens) (UniProt P05067); assay: Inhibition of aggregation of human DHFR-fused amyloid beta (1 to 42) expressed in yeast harboring erg6delta assessed as increase in yeast viability at 10 uM measured up to 20 hrs in presence of MTX
Amyloid-beta precursor protein (Homo sapiens), sequence (P05067 whole entry, the tested form may be a part): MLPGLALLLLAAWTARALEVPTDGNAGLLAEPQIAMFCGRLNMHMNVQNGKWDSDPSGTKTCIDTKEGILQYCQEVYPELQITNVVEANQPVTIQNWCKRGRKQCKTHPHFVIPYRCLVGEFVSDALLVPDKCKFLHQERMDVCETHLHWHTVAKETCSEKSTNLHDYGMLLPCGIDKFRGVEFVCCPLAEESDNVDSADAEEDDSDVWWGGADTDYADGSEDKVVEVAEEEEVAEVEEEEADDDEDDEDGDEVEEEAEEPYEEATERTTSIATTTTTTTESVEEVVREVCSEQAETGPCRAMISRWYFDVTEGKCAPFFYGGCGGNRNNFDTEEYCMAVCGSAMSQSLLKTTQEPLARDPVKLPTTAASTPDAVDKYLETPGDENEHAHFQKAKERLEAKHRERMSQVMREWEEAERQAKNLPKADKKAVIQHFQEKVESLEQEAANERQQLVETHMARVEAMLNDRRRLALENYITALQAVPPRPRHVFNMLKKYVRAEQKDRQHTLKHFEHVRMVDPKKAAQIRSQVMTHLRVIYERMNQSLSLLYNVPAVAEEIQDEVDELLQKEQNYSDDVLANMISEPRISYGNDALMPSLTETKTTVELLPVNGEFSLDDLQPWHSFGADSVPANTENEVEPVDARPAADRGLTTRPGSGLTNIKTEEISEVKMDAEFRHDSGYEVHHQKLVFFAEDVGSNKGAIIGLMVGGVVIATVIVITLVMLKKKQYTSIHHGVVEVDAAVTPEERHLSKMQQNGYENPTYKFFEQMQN

[12] = biological target: Amyloid-beta precursor protein (Homo sapiens) (UniProt P05067); assay: Inhibition of aggregation of human DHFR-fused amyloid beta (1 to 42) expressed in yeast harboring erg6delta assessed as increase in yeast viability measured up to 20 hrs in presence of MTX
Saccharomyces cerevisiae [13] = assay: Toxicity in yeast harboring erg6delta expressing human DHFR-fused amyloid beta (1 to 42) at 10 uM; type: organism-based; details: in vivo
[14] = Inhibition of aggregation of GFP-fused amyloid beta (1 to 42) expressed in Podospora anserina assessed as reduction of amyloid beta SDS-resistant oligomers at 100 uM after 24 hrs by SDS-PAGE and Western blot analysis
[15] = Toxicity in Podospora anserina expressing GFP-fused amyloid beta (1 to 42) assessed as effect on lifespan and growth rate of fungi at 100 uM

Structure (SMILES) | Activity [1] | inhibition [2] | Activity [3] | Activity (Saccharomyces cerevisiae [4]) | MCC at 24 h [5] | logP [6] | inhibition [7] | inhibition [8] | inhibition [9] | inhibition [10] | inhibition [11] | inhibition [12] | Activity (Saccharomyces cerevisiae [13]) | inhibition [14] | Activity [15]
Nc1c(S(=O)(=O)c2ccc(Cl)cc2)cnc2cc(-c3ccccc3)nn12 | inactive | inactive | Non-toxic | Toxic | 22 µM | 3.3 | Active | Active | Active |  |  |  |  |  | 
O=C(Nc1ccccc1)Nc1ccc(Cl)cc1[N+](=O)[O-] | inactive | inactive | Toxic | Toxic | 20 µM | 3.7 | Active | Active | Active | Active | Active |  |  |  | 
O=S(=O)(Nc1ccc(N2CCCCC2)cc1)c1cc(Cl)sc1Cl | inactive | Active | Non-toxic |  | 17 µM | 3.9 | Active | Active | Active | Active | Active | Dose-dependent effect |  |  | 
CCCCC(CC)CNC(=N)NC(=N)NCCCCCCNC(=N)NC(=N)NCC(CC)CCCC.Cl.Cl (configuration not stated) [ALEXIDINE DIHYDROCHLORIDE] |  |  |  |  | 2 µM |  | Active | Active | Active |  |  |  | Toxic |  | 
Cc1nc2sc3c(c2c(=O)o1)CCCC3 | inactive |  |  |  | 184 µM | 2.8 | Active | Active | Active | Active | Active | Dose-dependent effect |  | inactive | Toxic

From ChEMBL document CHEMBL2176928, “Discovery of novel inhibitors of amyloid β-peptide 1-42 aggregation” (J Med Chem, 2012)
